According to patent publication US6992072B2, “Combating side-effects” (Pharma Nord ApS, priority 2001, dated 2006):

Tests used:
Type in all cases: cell-based, human
[1] = tested on: HepG2 cell line; assay: Number of HepG2 cells on the day of trypsinization (survival) in the presence of ddC; conditions: ddC 177 nM; for Number of cells on the day of the trypsinization: HepG2, uridine 200 μM or vitamin cocktail where named
Procedure: (§1) Cell culture. The HepG2 cell line, a human hepatoma cell line, is taken from the American Type Culture Collection (ATCC No. HB-8065). It is cultured at 37° C. in a 5% CO2 atmosphere. The culture medium is Dulbecco's Modified Eagle Medium (DMEM-containing 4.5 g/l glucose, 110 mg/l pyruvate, 4 mg/l nicotinamide, 4 mg/l pyridoxal hydrochloride, 4 mg/l thiamine and 0.4 riboflavin), supplemented with 10% fetal bovine serum (50 ml FCS, Mycoplex PAA Laboratories, Linz). On day 1, 2.7×10^6 cells are placed in 75 ml culture flasks (Falcon, Becton Dickinson, USA). On days 5, 10, 15, 20 and 25, the cells are trypsinized and counted; 2.7×10^6 cells are again spread out. The medium is changed on each day of trypsinization and on the third day after replating. Materials: Riboflavin (vitamin B2), thiamine (vitamin B1), ascorbic acid (vitamin C), uridine and ddC are purchased from Sigma (USA). The concentrations of uridine are given in the following tables; ddC is used in a concentration of 177 nM, which corresponds to the steady-state plasma levels of patients under HAART. A vitamin cocktail consisting of 7.125 mg/l riboflavin, 7.125 mg/l thiamine and 142.5 mg/l vitamin C is used. These pharmacological concentrations exceed the daily requirement by a factor of about one hundred, and meet the safe upper limits according to the recommendations of the European Union for these micro-nutrients.

[2] = tested on: mitochondrial DNA (mtDNA); assay: Quantification of mitochondrial DNA by Southern Blot (M/N ratio) in HepG2 cells; conditions: ddC 177 nM; for Content of mitochondrial DNA, M/N-ratio in % of the control: control = HepG2-cells without ddC and without uridine
Procedure: Cell culture. The HepG2 cell line, a human hepatoma cell line, is taken from the American Type Culture Collection (ATCC No. HB-8065). It is cultured at 37° C. in a 5% CO2 atmosphere. The culture medium is Dulbecco's Modified Eagle Medium (DMEM-containing 4.5 g/l glucose, 110 mg/l pyruvate, 4 mg/l nicotinamide, 4 mg/l pyridoxal hydrochloride, 4 mg/l thiamine and 0.4 riboflavin), supplemented with 10% fetal bovine serum (50 ml FCS, Mycoplex PAA Laboratories, Linz). On day 1, 2.7×10^6 cells are placed in 75 ml culture flasks (Falcon, Becton Dickinson, USA). On days 5, 10, 15, 20 and 25, the cells are trypsinized and counted; 2.7×10^6 cells are again spread out. The medium is changed on each day of trypsinization and on the third day after replating. Materials: Riboflavin (vitamin B2), thiamine (vitamin B1), ascorbic acid (vitamin C), uridine and ddC are purchased from Sigma (USA). The concentrations of uridine are given in the following tables; ddC is used in a concentration of 177 nM, which corresponds to the steady-state plasma levels of patients under HAART. A vitamin cocktail consisting of 7.125 mg/l riboflavin, 7.125 mg/l thiamine and 142.5 mg/l vitamin C is used. These pharmacological concentrations exceed the daily requirement by a factor of about one hundred, and meet the safe upper limits according to the recommendations of the European Union for these micro-nutrients. Quantification of mitochondrial DNA (mtDNA) by means of Southern Blot: The content of mtDNA is determined by a well-known Southern-Blot technique (C. T. Moraes et al., “Quantitative Defects of Mitochondrial DNA”, in: S. DiMauro and D. C. Wallace, “Mitochondrial DNA in Human Pathology”, Raven Press, New York 1993, Chapter 8, pages 97–108). Genomic DNA is extracted from the fatty tissue and cut with the restriction endonuclease Pvull. Five μg of the cut material are separated electrophoretically on a 0.8% agarose gel and transferred to a nylon membrane. The mtDNA is tested with a 12.9 kBp mtDNA fragment (which comprises the nucleotide positions 3470 and 16379 of human mtDNA (S. Anderson et al., Nature 9, 457–65 (1981), and which is marked by means stochastically binding primers with digoxigenin). In order to have an internal standard, digoxigen labeled nuclear DNA (nDNA), which hybridizes to the copy-number 18S-ribosomal DNA gene, serves as a second probe. The signals for mtDNA and nDNA are visualized, according to the recommendations of the manufacturer (Boehringer Mannheim, Germany), with a monoclonal antibody against digoxigenin, which is conjugated with alkaline phosphatase. The signal intensities are quantified by computer by means of standard software. The mtDNA content is expressed as the mtDNA/nDNA (M/N) ratio.

[3] = tested on: HepG2 cell line; assay: L-lactate in the culture medium of HepG2 cells, enzymatic test; conditions: ddC 177 nM; for Lactate values in the medium in percent of the control: control without ddC and without uridine, Day 0 = 100%
Procedure: as §1, with “micro-nutrients. Lactic acid: 1.5 ml of the remainder of the culture is removed in each case immediately before the trypsinization and the L-lactate in it is determined enzymatically with the lactate test-kit from Roche Diagnostics (order No.1822837) in an automatic analysis device (Roche/Hitachi 917) according to the recommendations of the manufacturer.” for “micro-nutrients.”

[4] = tested on: HepG2 cell line; assay: Intracellular lipids of HepG2 cells, Oil-Red-O staining
Procedure: as §1, with “The concentrations of uridine are given in the following tables; ddC is used in a concentration of 177 nM, which corresponds to the steady-state plasma levels of patients under HAART.” left out, “micro-nutrients. Determining the intracellular lipids: Intracellular lipid droplets' are stained by means of Oil-Red-O (Sigma, USA). […]” for “micro-nutrients.”

Structure (SMILES): Nc1ccn([C@H]2CC[C@@H](CO)O2)c(=O)n1 [ddC, dideoxycytidine]
- Number of cells on the day of the trypsinization ([1]; Day 5, 2.7×10^6 cells replated every 5 days): 110.0 100,000s
- Number of cells on the day of the trypsinization ([1]; Day 10): 98.5 100,000s
- Number of cells on the day of the trypsinization ([1]; Day 20): 66.2 100,000s
- Number of cells on the day of the trypsinization ([1]; Day 25): 38.4 100,000s
- Content of mitochondrial DNA, M/N-ratio in % of the control ([2]; Day 0): 100.0%
- Content of mitochondrial DNA, M/N-ratio in % of the control ([2]; Day 5): 25.6%
- Content of mitochondrial DNA, M/N-ratio in % of the control ([2]; Day 10): 25.1%
- Content of mitochondrial DNA, M/N-ratio in % of the control ([2]; Day 15): 11.5%
- Content of mitochondrial DNA, M/N-ratio in % of the control ([2]; Day 20): 8.3%
- Content of mitochondrial DNA, M/N-ratio in % of the control ([2]; Day 25): 8.4%
- Lactate values in the medium in percent of the control ([3]; Day 6): 109.2%
- Lactate values in the medium in percent of the control ([3]; Day 10): 129.5%
- Lactate values in the medium in percent of the control ([3]; Day 15): 220.1%
- Lactate values in the medium in percent of the control ([3]; Day 20): 374.9%
- Lactate values in the medium in percent of the control ([3]; Day 25): 392.5%
- Intracellular lipids / steatotic changes, microscopic image ([4]; Day 20, Oil-Red-O, 177 nM ddC, 200 μM uridine as printed): clearly fewer cells are found, which however, are relatively large and red-colored

Structure (SMILES): O=c1ccn([C@@H]2O[C@H](CO)[C@@H](O)[C@H]2O)c(=O)[nH]1 [uridine]
- Survival of the HepG2-cells in the presence of ddC ([1]; uridine 200 μM, 25-day incubation): normalizes the survival of the HepG2-cells in the presence of ddC
- Reduction of the mtDNA ([2]; HepG2, uridine 200 μM): diminishes the reduction of the mtDNA
- Production of lactic acid ([3]; HepG2, uridine 200 μM): diminished by the uridine
- Compensation for the side effects of ddC (overall, see also Tables 1 to 3) ([4]; summary of lipid staining, cell number, mtDNA and lactate): can compensate for the side effects of ddC
